How the values were obtained:
Type in all cases: cell-based, Pseudomonas aeruginosa
P. aeruginosa H131300444 [1] = test: In vitro static time-kill experiment; conditions: colistin 2 mg/L and/or ciprofloxacin 8 mg/L; 0-24 hrs; FIG. 13A
Procedure: (§1) All samples were dissolved in CAMHB and all experiments were performed with an initial inoculum of ~10^6 CFU/mL in 20 mL of CAMHB in 50 mL pyrogen-free and sterile polypropylene tubes. […] Serial samples (50 μL) were obtained at 0, 1, 3, 6 and 24 hrs for viable cell counting and determination of drug concentrations. All samples were centrifuged at 12000×g for 10 min and cell pellets were resuspended in 0.9% saline and diluted accordingly for viable counting on nutrient agar plates. The bacteria were incubated at 37° C. for 24 hrs and the limit of detection was 20 CFU/mL (equivalent to one colony per plate). The colonies were counted with a ProtoCOL colony counter (Synbiosis, Cambridge, United Kingdom).

P. aeruginosa H133880624 [2] = test: In vitro static time-kill experiment; conditions: colistin 2 mg/L and/or ciprofloxacin 8 mg/L; 0-24 hrs; FIG. 13B
Procedure: as §1

P. aeruginosa H131300444 [3] = test: Minimum inhibitory concentration, broth microdilution; conditions: clinical isolate P. aeruginosa H131300444
Procedure: (§2) Briefly, fresh cultures of each strain were diluted in Cation-Adjusted Mueller-Hinton Broth (CAMHB; Mg^2+ at 12.2 mg/L and Ca^2+ at 23.0 mg/L [Oxoid, Hampshire, England]) giving an approximately inoculum of 10^^6 colony-forming units (CFU/ml) as the inocula. Drug concentrations of 0, 0.125, 0.25, 0.5, 1, 2, and 4 mg/L were derived from diluting the stock drug solution (5.12 mg/mL) with CAMHB.

P. aeruginosa H133880624 [4] = test: as above; conditions: clinical isolate P. aeruginosa H133880624
Procedure: as §2

## Colistin sulfate
P. aeruginosa H131300444 [1]
  time-kill profile: no antibacterial effect
P. aeruginosa H133880624 [2]
  time-kill profile: no antibacterial effect
P. aeruginosa H131300444 [3]
  MIC: 128 µg/mL
P. aeruginosa H133880624 [4]
  MIC: 128 µg/mL

Reference: patent US12728136B2, “Liposomal nano formulation of combinational antibiotics and the uses thereof” (Purdue Research Foundation, priority 2018, dated 2026)
